Where two headings read alike, the source gives them in different places. Square brackets hold non-standard residues; d marks the D form. Ends that are not written are not given here. Peptide text beside a SMILES is read from it. pY = N[C@@H](Cc1ccc(OP(=O)(O)O)cc1)C(=O)O

These results are taken from patent US8895746B2 (University of Central Florida Research Foundation, Inc., priority 2009, dated 2014).

One experiment concerns the target T1, His-tagged Stat3 (Mus musculus, UniProt P42227).
T1 construct: Coding regions for the murine Stat3 protein; made in house; host or cells: E. coli BL21(DE3)
The experiment in a line: Surface Plasmon Resonance analysis of binding to immobilized His-tagged Stat3. Also noted: species or system murine. The source says: (§1) Coding regions for the murine Stat3 protein and Stat3 SH2 domain were amplified by PCR and cloned into vectors pET-44 Ek/LIC (Novagen) and pET SUMO (Invitrogen), respectively.
Clones were sequenced to verify the correct sequences and orientation. His-tagged recombinant proteins were expressed in BL21(DE3) cells, and purified on Ni-ion sepharose column.
SensiQ and its analysis software Qdat (ICX Technologies, Oklahoma City, Okla.) were used to analyze the interaction between agents and the Stat3 protein and to determine the binding affinity. Purified Stat3 was immobilized on a HisCap Sensor Chip by injecting 50 µg/ml of Stat3 onto the chip. […] The association and dissociation rate constants were calculated using the Qdat software. The ratio of the association and dissociation rate constants was determined as the affinity (KD).
To provide definitive evidence of direct binding to Stat3, biophysical studies were performed. H1s-tagged Stat3 protein (or SH2 domain; 50 ng) was immobilized on a Ni-NTA sensor chip surface for Surface Plasmon Resonance analysis of the binding of 531201.1066 as the analyte. Association and dissociation measurements were taken and the binding affinity of S31-201.1066 for Stat3 was determined using Qdat software.

Experiment [1] has as its target T2, Stat3 (Mus musculus, UniProt P42227). The experiment in a line: Fluorescence Polarization assay, Stat3 binding to 5-carboxyfluorescein-GpYLPQTV-NH2 probe. Further details: Coding regions for the murine Stat3 protein; made in house; host or cells: E. coli BL21(DE3); species or system murine. As for the experimental part:
as §1
Fluorescence Polarization (FP) Assay was conducted as previously reported (23), with some modification using the phospho-peptide, 5-carboxyfluorescein-GpYLPQTV-NH2 (phosphorylated SEQ ID NO:7) (where pY represents phospho-Tyr) as probe and Stat3. The FP assay was used to evaluate the binding of agents to Stat3 and to determine the ability to disrupt the Stat3:pTyr peptide interaction. A fixed concentration of the fluorescently-labeled peptide probe (10 nM) was incubated with increasing concentration of the Stat3 protein for 30 min at room temperature in the buffer, 50 mM NaCI, 10 mM HEPES, 1 mM EDTA, 0.1% Nonidet P-40, and the fluorescent polarization measurements were determined using the POLARstar Omega (BMG LABTECH, Durham, N.C.), with the set gain adjustment at 35 mP. The Z′ value was derived per the equation Z′=1−(3 SDbound+3 SD free)/(mPbound−mPfree), where SD is the standard deviation and mP is the average of fluorescence polarization. In the bound state, 10 nM 5-carboxyfluorescein-GpYLPQTV-NH2 (phosphorylated SEQ ID NO:7) was incubated with 150 nM purified Stat3 protein, while the free (unbound) state was the same mixture, but incubated with an additional 10 IJM unlabeled Ac-GpYLPQTV-NH2 (phosphorylated SEQ ID NO:7). For evaluating agents, Stat3 protein (150 nM) was incubated with serial concentrations of S31-201.1066 at 30° C. for 60 min in the indicated assay buffer conditions. Prior to the addition of the fluorescence probe, the protein:S31-201.1066 mixtures were allowed to equilibrate at room temperature for 15 min. Probe was added at a final concentration of 10 nM and incubated for 30 min at room temperature following which the FP measurements were taken using the POLARstar Omega, with the set gain adjustment at 35 mP.
The FP assay was used to further test the computational modeling prediction of the ability of S31-201.1066 to disrupt Stat3 interaction with its cognate pTyr peptide.

Experiment [2] deals with T2, Stat3. Further details: endogenous in cells; host or cells: NIH3T3/v-Src mouse fibroblasts (nuclear extract). Conditions: read-out: IC50, disruption of Stat3 DNA-binding activity in vitro; previously reported (22); cited from earlier work.
For experiment [3], the target named is T2, Stat3. Also noted: Coding regions for the murine Stat3 protein; made in house; host or cells: E. coli BL21(DE3). The conditions noted are these: cited from earlier work.
The target of experiment [4] is T2, Stat3. The experiment in a line: Stat3 DNA-binding assay in vitro (EMSA, hSIE probe), nuclear extracts of NIH3T3/v-Src. Conditions: 30 min pre-incubation at room temperature, read-out: IC50, inhibition of Stat3 DNA-binding activity in vitro. It counts as biochemical. Further details: endogenous in cells; host or cells: NIH3T3/v-Src mouse fibroblasts (nuclear extract). As for the experimental part:
Nuclear extract preparations and electrophoretic mobility shift assay (EMSA) were carried out as previously described (28,33). […] Except where indicated, nuclear extracts were pre-incubated with compound for 30 min at room temperature prior to incubation with the radiolabeled probe for 30 min at 30° C. before subjecting to EMSA analysis.
On the technique in general: In EMSA bound probe runs differently from free probe, usually more slowly.

The subject of experiment [5] is NIH3T3/v-Src, MDA-MB-231 and Panc-1 cells. The conditions noted are these: previously reported (18); cited from earlier work.

T2 sequence (P42227 whole entry): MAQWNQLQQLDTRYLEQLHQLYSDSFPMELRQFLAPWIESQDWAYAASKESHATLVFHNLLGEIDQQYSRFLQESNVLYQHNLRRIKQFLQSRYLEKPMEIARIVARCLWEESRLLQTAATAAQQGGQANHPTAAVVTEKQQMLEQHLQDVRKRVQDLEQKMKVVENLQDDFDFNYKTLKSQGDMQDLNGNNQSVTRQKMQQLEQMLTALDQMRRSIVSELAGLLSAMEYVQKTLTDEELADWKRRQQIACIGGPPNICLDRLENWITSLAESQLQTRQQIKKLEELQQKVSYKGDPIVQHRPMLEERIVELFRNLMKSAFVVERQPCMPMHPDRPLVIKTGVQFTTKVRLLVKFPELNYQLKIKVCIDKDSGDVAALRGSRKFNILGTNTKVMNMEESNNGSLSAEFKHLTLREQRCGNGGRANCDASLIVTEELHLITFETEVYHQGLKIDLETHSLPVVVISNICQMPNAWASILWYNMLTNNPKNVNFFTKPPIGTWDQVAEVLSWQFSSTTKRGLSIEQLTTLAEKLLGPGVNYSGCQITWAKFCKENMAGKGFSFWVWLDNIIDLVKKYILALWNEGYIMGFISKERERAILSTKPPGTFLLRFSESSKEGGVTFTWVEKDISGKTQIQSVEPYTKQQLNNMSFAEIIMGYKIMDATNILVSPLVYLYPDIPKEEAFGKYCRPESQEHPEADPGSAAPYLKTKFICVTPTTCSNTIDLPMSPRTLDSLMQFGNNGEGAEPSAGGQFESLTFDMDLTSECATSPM
T1 sequence (P42227 whole entry): as above

What is called IC50 is the midpoint of a concentration-inhibition curve. With `CC(C)C[C@H](NC(=O)[C@H](Cc1ccc(OP(=O)(O)O)cc1)NC(=O)CN)C(=O)N1CCC[C@H]1C(=O)N[C@@H](CCC(N)=O)C(=O)N[C@H](C(=O)N[C@H](C(N)=O)C(C)C)[C@@H](C)O` [GpYLPQTV-NH2] (H-G[pY]LPQTV-NH2), the Kd at His-tagged Stat3 was 24 nM; at Stat3 [3] (read-out: affinity for Stat3, reported, reported (23)), 150 ± 10 nM. Moreover, the IC50 at Stat3 [1] (150 nM Stat3, 10 nM probe, read-out: IC50, disruption of Stat3 binding to pTyr peptide probe) was 300 nM; at Stat3 [2], 150 nM; at Stat3 [3] (read-out: IC50, reported, reported (21)), 290 ± 63 nM; at Stat3 [3] (read-out: IC50 in FP assay, previously reported value, previously reported (23)) it was 250 ± 30 nM.
In the case of `Cc1ccc(S(=O)(=O)N(C)CC(=O)N(Cc2ccc(C3CCN(c4ccc(C#N)cc4)CC3)cc2)c2ccc(C(=O)O)c(O)c2)cc1` [S3I-201.2096], the IC50 at Stat3 [4] was 45000 nM.
For `Cc1ccc(S(=O)(=O)OCC(=O)Nc2ccc(C(=O)O)c(O)c2)cc1` [S3I-201], the “concentration of antitumor cell activity previously reported for the lead agent” value in experiment [5] was 100 µM.
As for GYLPQTV-NH2 [reference compound], in the experiment with His-tagged Stat3 (SPR, immobilized His-Stat3), the “binding to Stat3 (SPR)” value is “little evidence of significant binding”. For the same molecule, the “effect on the fluorescent polarization signal” value with Stat3 [1] (data not shown) is reported as “no evidence of effect”.
